# Data taken from ChEMBL document CHEMBL1152318, “Antitumor psoropermum xanthones and sarcomelicope acridones: privileged structures implied in DNA alkylation” (J Nat Prod, 2009).
# Legend:
# L1210 [1] = test: Ratio of IC50 for human KB-3-1 cells to IC50 for mouse L1210 cells; format: functional
# HCT-116 = test: Cytotoxicity against human HCT116 cells; format: functional, cell-based
# SMMC-7721 = test: Cytotoxicity against human SMMC7721 cells; format: functional, cell-based
# SGC-7901 = test: Cytotoxicity against human SGC7901 cells; format: functional, cell-based
# P388 [2] = test: Antitumor activity against mouse P388 cells xenografted in B6D2F1 mouse assessed as median survival at 12.5 mg/kg, ip relative to control; format: functional; settings: route intraperitoneal
# L1210 [3] = test: Ratio of acronycine IC50 to compound IC50 for mouse L1210 cells; format: functional
# L1210 [4] = test: Cytotoxicity against mouse L1210 cells; format: functional, cell-based
# [5] = Cytotoxicity against human 9KB cells; format: functional, cell-based
# P388 [6] = test: In vivo cytotoxicity against mouse P388 cells at 8 mg/kg relative to control; format: functional
# [7] = Cytotoxicity against human KB-3-1 cells; format: functional, cell-based
# P388 [8] = test: Antitumor activity against mouse P388 cells xenografted in B6D2F1 mouse assessed as median survival at 200 mg/kg, ip relative to control; format: functional; settings: route intraperitoneal
# MC-38 [9] = test: Antitumor activity against […] cells […] in B6D2F1 mouse assessed as tumor growth at 200 mg/kg, ip relative to control; format: functional; settings: route intraperitoneal
# MCF7 = test: Cytotoxicity against human MCF7 cells by MTT assay; format: functional, cell-based
# HeLa = test: Cytotoxicity against human HeLa cells by MTT assay; format: functional, cell-based
# A-431 = test: Cytotoxicity against human A431 cells by MTT assay; format: functional, cell-based
# OVCAR-3 = test: Antitumor activity against human OVCAR-3 cells xenografted in BALB/c nude mouse assessed as increase in survival administered twice by intravenous route; format: functional, cell-based
# IGROV-1 [10] = test: Antitumor activity against human IGROV1 cells xenografted in BALB/c nude mouse assessed as increase in survival administered twice by intravenous route; format: functional, cell-based
# NCI-H460 [11] = test: Antitumor activity against human NCI-H460 cells xenografted in BALB/c nude mouse assessed as increase in survival administered twice by intravenous route; format: functional, cell-based
# A549 = test: Antitumor activity against human A549 cells xenografted in BALB/c nude mouse assessed as increase in survival administered twice by intravenous route; format: functional, cell-based
# NCI-H460 [12] = test: Antitumor activity against human NCI-H460 cells xenografted in BALB/c nude mouse administered twice 6.25 mg/kg, iv relative to control; format: functional
# MC-38 [13] = test: Antitumor activity against […] cells […] in B6D2F1 mouse assessed as tumor growth at 6.25 mg/kg, ip relative to control; format: functional; settings: route intraperitoneal
# IGROV-1 [14] = test: Antitumor activity against human IGROV1 cells xenografted in BALB/c nude mouse administered twice 6.25 mg/kg, iv relative to control; format: functional
# MC-38 [15] = test: Antitumor activity against […] cells […] in B6D2F1 mouse assessed as inhibition of tumor growth at 6.25 mg/kg, ip; format: functional; settings: MC-38, ip, route intraperitoneal, read-out: TGI
# P388 [16] = test: Antitumor activity against mouse P388 cells xenografted in B6D2F1 mouse assessed as median survival at 25 mg/kg, ip relative to control; format: functional; settings: route intraperitoneal
# MC-38 [17] = test: Antitumor activity against […] cells […] in B6D2F1 mouse assessed as tumor growth at 12.5 mg/kg, ip relative to control; format: functional; settings: route intraperitoneal
# P388 [18] = test: Antitumor activity against mouse P388 cells xenografted in B6D2F1 mouse assessed as median survival at 50 mg/kg, ip relative to control; format: functional; settings: route intraperitoneal
# [19] = Homo sapiens, HeLa, read-out: IC50
# [20] = Homo sapiens, A-431, read-out: IC50
smiles,measurement,setting,value
CCC(=O)O[C@@H]1c2c(cc(OC)c3c(=O)c4c5ccccc5ccc4n(C)c23)OC(C)(C)[C@@H]1OC(=O)CC (racemic),Ratio IC50,L1210 [1],3
COc1cc2c(c3c1c(=O)c1c4ccccc4ccc1n3C)[C@@H](OC(=O)CC(C)C)[C@@H](OC(=O)CC(C)C)C(C)(C)O2 (racemic),Ratio IC50,L1210 [1],3
COc1cc2c(c3c1c(=O)c1cc4ccccc4cc1n3C)[C@@H](OC(=O)CC(C)C)[C@@H](OC(=O)CC(C)C)C(C)(C)O2 (racemic),Ratio IC50,L1210 [1],3
COc1cc2c(c3c1c(=O)c1c4ccccc4ccc1n3C)[C@@H](OC(C)=O)[C@@H](OC(=O)CC(C)C)C(C)(C)O2 (racemic),Ratio IC50,L1210 [1],3
C=CC(C)(C)c1c(O)cc(O)c2c(=O)c3c(CC=C(C)C)c(O)c(O)cc3oc12 [CUDRATRICUSXANTHONE A],IC50,HCT-116,4000 nM
same,IC50,SMMC-7721,4000 nM
same,IC50,SGC-7901,4000 nM
COc1cc2c(c3c1c(=O)c1ccccc1n3C)[C@@H](OC(C)=O)[C@H](OC(C)=O)C(C)(C)O2 (racemic),T/C,P388 [2],181%
COc1cc2c(c3c1c(=O)c1cc4ccccc4cc1n3C)C=CC(C)(C)O2 [BENZO[B]ACRONYCINE],Ratio IC50,L1210 [3],4
COc1cc2c(c3c1c(=O)c1ccc4ccccc4c1n3C)C=CC(C)(C)O2 [BENZO[C]ACRONYCINE],IC50,L1210 [4],12100 nM
COc1cc2c(c3oc4c(O)cccc4c(=O)c13)C[C@H]([C@@]1(C)CO1)O2 [PSOROSPERMIN],IC50,[5],290 nM
same,T/C,P388 [6],158%
CCC(=O)O[C@@H]1c2c(cc(OC)c3c(=O)c4cc5ccccc5cc4n(C)c23)OC(C)(C)[C@@H]1OC(=O)CC (racemic),Ratio IC50,L1210 [1],3
COc1cc2c(c3c1c(=O)c1cc4ccccc4cc1n3C)C[C@H]([C@@]1(C)CO1)O2,IC50,L1210 [4],10 nM
same,IC50,[7],10 nM
COc1cc2c(c3c1c(=O)c1ccccc1n3C)C=CC(C)(C)O2 [ACRONINE],T/C,P388 [8],125%
same,T/C,MC-38 [9],4%
Cn1c2ccccc2c(=O)c2c(O)cc3c(c21)CC(C(C)(O)CO)O3 (centres undefined) [GRAVACRIDONDIOL],IC50,MCF7,3000 nM
same,IC50,HeLa; [19],3000 nM
same,IC50,A-431; [20],3000 nM
COc1cc2c(c3c1c(=O)c1c4ccccc4ccc1n3C)C=CC(C)(C)O2 [BENZO[A]ACRONYCINE],Ratio IC50,L1210 [3],4
COc1cc2c(c3c1c(=O)c1cc4ccccc4cc1n3C)[C@@H](OC(C)=O)[C@@H](OC(C)=O)C(C)(C)O2 (racemic),Activity,OVCAR-3,Dose-dependent effect
same,Activity,IGROV-1 [10],Dose-dependent effect
same,Activity,NCI-H460 [11],Dose-dependent effect
same,Activity,A549,Dose-dependent effect
same,T/C,NCI-H460 [12],162%
same,Ratio IC50,L1210 [1],3
same,T/C,P388 [2],327%
same,T/C,MC-38 [13],4%
same,T/C,IGROV-1 [14],193%
same,inhibition in vivo at 6.25 mg/kg,MC-38 [15],96%
COc1cc2c(c3c1c(=O)c1cc4ccccc4cc1n3C)[C@@H](OC(C)=O)[C@@H](OC(=O)CC(C)C)C(C)(C)O2 (racemic),Ratio IC50,L1210 [1],3
COc1cc2c(c3c1c(=O)c1c4ccccc4ccc1n3C)[C@@H](OC(C)=O)[C@@H](OC(C)=O)C(C)(C)O2 (racemic),Ratio IC50,L1210 [1],3
Cn1c2ccccc2c(=O)c2c(O)cc3c(c21)CC(C(O)(CO)CO)O3 (centres undefined) [GRAVACRIDONTRIOL],IC50,HeLa; hela,Active
same,IC50,A-431; a-431,Active
COc1cc2c(c3c1c(=O)c1ccccc1n3C)[C@@H](OC(C)=O)[C@@H](OC(C)=O)C(C)(C)O2 (racemic),Ratio IC50,L1210 [3],5
same,T/C,P388 [16],289%
same,T/C,MC-38 [17],0%
COc1cc2c(c3c1c(=O)c1cc4ccccc4cc1n3C)C[C@H]([C@]1(C)CO1)O2,IC50,L1210 [4],10 nM
same,IC50,[7],10 nM
COc1cc2c(c3c1c(=O)c1ccccc1n3C)[C@@H](OC(C)=O)[C@@H](OC(=O)c1ccccc1)C(C)(C)O2 (racemic),Ratio IC50,L1210 [3],5
same,T/C,P388 [18],201%
same,T/C,MC-38 [17],13%
C=C(C)[C@H]1Cc2c(cc(O)c3c(=O)c4ccccc4n(C)c23)O1 [RUTACRIDONE],IC50,MCF7,3000 nM
same,IC50,HeLa; [19],3000 nM
same,IC50,A-431; [20],3000 nM
COCC(C)(O)C1Cc2c(cc(O)c3c(=O)c4ccccc4n(C)c23)O1 (centres undefined) [GRAVACRIDONDIOLMONOMETHYL ETHER],IC50,MCF7,3000 nM
same,IC50,HeLa; [19],3000 nM
same,IC50,A-431; [20],3000 nM
